From PubChem BioAssay (NCI)
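Five compound concentrations were applied to cells in 96-well plates for 48 hours; endpoints were derived by simple linear interpolation of the resulting dose-response curve. At the GI50, growth is halved. TGI: total growth inhibition.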

Assays:
Assay in all cases: inhibition of tumour cell growth, NCI panel, 48 h
M14 melanoma = tested on: M14 melanoma
NCI-H460 lung = tested on: NCI-H460 lung
DU-145 prostate = tested on: DU-145 prostate
HS 578T breast = tested on: HS 578T breast
SW-620 colon = tested on: SW-620 colon
ACHN renal = tested on: ACHN renal
MDA-MB-231 breast = tested on: MDA-MB-231 breast
SNB-19 CNS = tested on: SNB-19 CNS
NCI-H23 lung = tested on: NCI-H23 lung
TK-10 renal = tested on: TK-10 renal
A549 NSCLC = tested on: A549 NSCLC
OVCAR-4 ovarian = tested on: OVCAR-4 ovarian
U251 CNS = tested on: U251 CNS
HOP-62 NSCLC = tested on: HOP-62 NSCLC
LOX IMVI melanoma = tested on: LOX IMVI melanoma
HCT-116 colon = tested on: HCT-116 colon
HCC-2998 colon = tested on: HCC-2998 colon
MOLT-4 leukemia = tested on: MOLT-4 leukemia
RPMI-8226 leukemia = tested on: RPMI-8226 leukemia
SF-295 CNS = tested on: SF-295 CNS
SK-OV-3 ovarian = tested on: SK-OV-3 ovarian
SF-268 CNS = tested on: SF-268 CNS
KM12 colon = tested on: KM12 colon
OVCAR-5 ovarian = tested on: OVCAR-5 ovarian
K-562 leukemia = tested on: K-562 leukemia
RXF 393 renal = tested on: RXF 393 renal
SK-MEL-28 melanoma = tested on: SK-MEL-28 melanoma
OVCAR-3 ovarian = tested on: OVCAR-3 ovarian
IGROV1 ovarian = tested on: IGROV1 ovarian
SN12C renal = tested on: SN12C renal
NCI/ADR-RES ovarian = tested on: NCI/ADR-RES ovarian
UO-31 renal = tested on: UO-31 renal
OVCAR-8 ovarian = tested on: OVCAR-8 ovarian
NCI-H522 lung = tested on: NCI-H522 lung
CAKI-1 renal = tested on: CAKI-1 renal
HOP-92 NSCLC = tested on: HOP-92 NSCLC
NCI-H226 lung = tested on: NCI-H226 lung
786-0 renal = tested on: 786-0 renal
T-47D breast = tested on: T-47D breast
UACC-62 melanoma = tested on: UACC-62 melanoma
EKVX NSCLC = tested on: EKVX NSCLC
BT-549 breast = tested on: BT-549 breast
CCRF-CEM leukemia = tested on: CCRF-CEM leukemia
MDA-MB-435 = tested on: MDA-MB-435
COLO 205 colon = tested on: COLO 205 colon
MALME-3M melanoma = tested on: MALME-3M melanoma
HL-60(TB) leukemia = tested on: HL-60(TB) leukemia
MCF7 breast = tested on: MCF7 breast
PC-3 prostate = tested on: PC-3 prostate
A498 renal = tested on: A498 renal
SNB-75 CNS = tested on: SNB-75 CNS
SK-MEL-5 melanoma = tested on: SK-MEL-5 melanoma
UACC-257 melanoma = tested on: UACC-257 melanoma
HT29 colon = tested on: HT29 colon
SR leukemia = tested on: SR leukemia
HCT-15 colon = tested on: HCT-15 colon
SF-539 CNS = tested on: SF-539 CNS
SK-MEL-2 melanoma = tested on: SK-MEL-2 melanoma

## COc1ccc([C@@H]2[C@@H](O)C(=O)N2c2cc(OC)c(OC)c(OC)c2)cc1F
M14 melanoma
  GI50: 35 nM
  TGI: > 100000 nM
NCI-H460 lung
  GI50: 34.4 nM
  TGI: > 100000 nM
DU-145 prostate
  GI50: 39.5 nM
  TGI: > 100000 nM
HS 578T breast
  GI50: 57.6 nM
  TGI: > 100000 nM
SW-620 colon
  GI50: 45.9 nM
  TGI: > 100000 nM
ACHN renal
  GI50: 56.8 nM
  TGI: > 100000 nM
MDA-MB-231 breast
  GI50: 49.1 nM
  TGI: > 100000 nM
SNB-19 CNS
  GI50: 79.9 nM
  TGI: > 100000 nM
NCI-H23 lung
  GI50: 52.5 nM
  TGI: > 100000 nM
TK-10 renal
  GI50: > 100000 nM
  TGI: > 100000 nM
A549 NSCLC
  GI50: 44.8 nM
  TGI: > 100000 nM
OVCAR-4 ovarian
  GI50: 686 nM
  TGI: > 100000 nM
U251 CNS
  GI50: 36 nM
  TGI: > 100000 nM
HOP-62 NSCLC
  GI50: 58.2 nM
  TGI: > 100000 nM
LOX IMVI melanoma
  GI50: 38.1 nM
  TGI: > 100000 nM
HCT-116 colon
  GI50: 33.9 nM
  TGI: > 100000 nM
HCC-2998 colon
  GI50: 48.5 nM
  TGI: > 100000 nM
MOLT-4 leukemia
  GI50: 45.8 nM
  TGI: > 100000 nM
RPMI-8226 leukemia
  GI50: 41.5 nM
  TGI: > 21800 nM
SF-295 CNS
  GI50: 36.2 nM
  TGI: > 100000 nM
SK-OV-3 ovarian
  GI50: 55.9 nM
  TGI: > 84600 nM
SF-268 CNS
  GI50: 98.4 nM
  TGI: > 100000 nM
KM12 colon
  GI50: 36.8 nM
  TGI: > 100000 nM
OVCAR-5 ovarian
  GI50: 49.6 nM
  TGI: > 100000 nM
K-562 leukemia
  GI50: 38.1 nM
  TGI: > 100000 nM
RXF 393 renal
  GI50: 30.5 nM
SK-MEL-28 melanoma
  GI50: 792 nM
  TGI: > 100000 nM
OVCAR-3 ovarian
  GI50: 29.9 nM
  TGI: 114 nM
IGROV1 ovarian
  GI50: 51.5 nM
  TGI: > 100000 nM
SN12C renal
  GI50: 50.4 nM
  TGI: > 100000 nM
NCI/ADR-RES ovarian
  GI50: 56.2 nM
  TGI: > 100000 nM
UO-31 renal
  GI50: 72.8 nM
  TGI: > 100000 nM
OVCAR-8 ovarian
  GI50: 40.7 nM
  TGI: > 100000 nM
NCI-H522 lung
  GI50: 19.9 nM
  TGI: 53.7 nM
CAKI-1 renal
  GI50: 46.3 nM
  TGI: > 61600 nM
HOP-92 NSCLC
  TGI: > 100000 nM
NCI-H226 lung
  GI50: 34.5 nM
  TGI: 432 nM
786-0 renal
  GI50: 41.9 nM
  TGI: > 100000 nM
T-47D breast
  GI50: > 55200 nM
  TGI: > 100000 nM
UACC-62 melanoma
  GI50: 48.7 nM
  TGI: > 100000 nM
EKVX NSCLC
  GI50: > 100000 nM
  TGI: > 100000 nM
BT-549 breast
  GI50: 29.4 nM
  TGI: 203 nM
CCRF-CEM leukemia
  GI50: 42.6 nM
  TGI: > 100000 nM
MDA-MB-435
  GI50: 23.1 nM
  TGI: 57.5 nM
COLO 205 colon
  GI50: 30.3 nM
  TGI: 93.3 nM
MALME-3M melanoma
  GI50: 79.1 nM
  TGI: > 100000 nM
HL-60(TB) leukemia
  GI50: 32.9 nM
  TGI: 207 nM
MCF7 breast
  GI50: 35.2 nM
  TGI: > 100000 nM
PC-3 prostate
  GI50: 54.6 nM
  TGI: > 100000 nM
A498 renal
  GI50: 22400 nM
  TGI: > 100000 nM
SNB-75 CNS
  GI50: 45.6 nM
  TGI: > 100000 nM
SK-MEL-5 melanoma
  GI50: 35.1 nM
  TGI: 175 nM
UACC-257 melanoma
  TGI: > 100000 nM
HT29 colon
  GI50: 30.5 nM
  TGI: 110 nM
SR leukemia
  GI50: 33.4 nM
  TGI: > 100000 nM
HCT-15 colon
  GI50: 35.9 nM
  TGI: > 100000 nM

## CCCC(=O)NC(c1cccnc1)c1ccc2c(C)ccnc2c1O (stereo not drawn)
M14 melanoma
  GI50: 1160 nM
  TGI: > 100000 nM
NCI-H460 lung
  GI50: 576 nM
  TGI: > 100000 nM
DU-145 prostate
  GI50: 1700 nM
  TGI: > 100000 nM
HS 578T breast
  GI50: 8720 nM
  TGI: > 100000 nM
SW-620 colon
  GI50: 1940 nM
  TGI: > 100000 nM
ACHN renal
  GI50: 651 nM
  TGI: > 100000 nM
MDA-MB-231 breast
  GI50: 2230 nM
  TGI: > 100000 nM
SF-539 CNS
  GI50: 1740 nM
  TGI: > 100000 nM
SNB-19 CNS
  GI50: 3420 nM
  TGI: > 100000 nM
NCI-H23 lung
  GI50: 2540 nM
  TGI: > 100000 nM
TK-10 renal
  GI50: 3130 nM
  TGI: > 100000 nM
A549 NSCLC
  GI50: 2150 nM
  TGI: > 100000 nM
SK-MEL-2 melanoma
  GI50: 7090 nM
  TGI: > 100000 nM
OVCAR-4 ovarian
  GI50: 995 nM
  TGI: > 100000 nM
U251 CNS
  GI50: 1600 nM
  TGI: > 100000 nM
HOP-62 NSCLC
  GI50: 1500 nM
  TGI: > 100000 nM
LOX IMVI melanoma
  GI50: 697 nM
  TGI: 11700 nM
HCT-116 colon
  GI50: 538 nM
  TGI: > 100000 nM
HCC-2998 colon
  GI50: 2680 nM
  TGI: > 100000 nM
MOLT-4 leukemia
  GI50: 549 nM
  TGI: > 100000 nM
RPMI-8226 leukemia
  GI50: 1880 nM
  TGI: > 100000 nM
SF-295 CNS
  GI50: 930 nM
  TGI: > 100000 nM
SK-OV-3 ovarian
  GI50: 2100 nM
  TGI: > 100000 nM
SF-268 CNS
  GI50: 1810 nM
  TGI: > 100000 nM
KM12 colon
  GI50: 2280 nM
  TGI: > 100000 nM
OVCAR-5 ovarian
  GI50: 2870 nM
  TGI: > 100000 nM
K-562 leukemia
  GI50: 851 nM
  TGI: > 100000 nM
RXF 393 renal
  GI50: 2790 nM
  TGI: > 100000 nM
SK-MEL-28 melanoma
  GI50: 2300 nM
  TGI: > 100000 nM
IGROV1 ovarian
  GI50: 1870 nM
  TGI: > 100000 nM
SN12C renal
  GI50: 2370 nM
  TGI: > 100000 nM
NCI/ADR-RES ovarian
  GI50: 442 nM
  TGI: 77500 nM
UO-31 renal
  GI50: 548 nM
  TGI: 41300 nM
OVCAR-8 ovarian
  GI50: 1860 nM
  TGI: > 100000 nM
NCI-H522 lung
  GI50: 2170 nM
  TGI: > 100000 nM
CAKI-1 renal
  GI50: 1030 nM
  TGI: > 100000 nM
HOP-92 NSCLC
  GI50: 6100 nM
  TGI: > 100000 nM
NCI-H226 lung
  GI50: 2750 nM
  TGI: > 100000 nM
786-0 renal
  GI50: 2080 nM
  TGI: > 100000 nM
T-47D breast
  GI50: 1290 nM
  TGI: > 100000 nM
UACC-62 melanoma
  GI50: 2110 nM
  TGI: 20400 nM
EKVX NSCLC
  GI50: 892 nM
  TGI: 20200 nM
BT-549 breast
  GI50: 3930 nM
  TGI: > 100000 nM
CCRF-CEM leukemia
  GI50: 568 nM
  TGI: > 100000 nM
MDA-MB-435
  GI50: 2890 nM
  TGI: > 100000 nM
COLO 205 colon
  GI50: 1270 nM
  TGI: > 100000 nM
MALME-3M melanoma
  GI50: 2180 nM
  TGI: > 100000 nM
HL-60(TB) leukemia
  GI50: 591 nM
  TGI: 5850 nM
MCF7 breast
  GI50: 1910 nM
  TGI: > 100000 nM
PC-3 prostate
  GI50: 2540 nM
  TGI: > 100000 nM
A498 renal
  GI50: 2360 nM
  TGI: 16800 nM
SNB-75 CNS
  GI50: 3130 nM
  TGI: > 100000 nM
SK-MEL-5 melanoma
  GI50: 1690 nM
  TGI: 3650 nM
UACC-257 melanoma
  GI50: 2460 nM
  TGI: > 100000 nM
HT29 colon
  GI50: 2210 nM
  TGI: > 100000 nM
SR leukemia
  GI50: 472 nM
  TGI: > 100000 nM
HCT-15 colon
  GI50: 539 nM
  TGI: > 100000 nM
